Holding throughout (test): area under dose-response viability curve (log dose) (AUC (arbitrary)); higher = less sensitive
What all share (details): 72 h

Compound in one experiment: CC[C@]1(O)C[C@H]2CN(CCc3c([nH]c4ccccc34)[C@@](C(=O)OC)(c3cc4c(cc3OC)N(C=O)[C@H]3[C@@](O)(C(=O)OC)[C@H](OC(C)=O)[C@]5(CC)C=CCN6CC[C@]43[C@@H]65)C2)C1 [Vincristine]
Here is the method: (§1)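 Primary AML blasts from patients (3q26 EVI1-high and other AML) were treated for 72 h with a dose series of each drug. Viability was measured with an ATP-based CellTiter-Glo assay. The area under the curve of the log-transformed dose-response data was computed in GraphPad Prism; a lower AUC means greater sensitivity.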

Compound in the next experiment: CC(C)[C@H](C(=O)Nc1ccc(C(=O)NO)cc1)c1ccccc1 [AR-42]
Here is the method: as §1

Compound in another experiment: CN(Cc1cnc2nc(N)nc(N)c2n1)c1ccc(C(=O)N[C@@H](CCC(=O)O)C(=O)O)cc1 [Methotrexate]
Here is the method: as §1

Compound in the next experiment: Nc1ccccc1NC(=O)c1ccc(CNC(=O)OCc2cccnc2)cc1 [Entinostat]
Here is the method:
as §1

Compound in the next experiment: COc1cccc2c1C(=O)c1c(O)c3c(c(O)c1C2=O)C[C@@](O)(C(C)=O)C[C@@H]3O[C@H]1C[C@H](N)[C@H](O)[C@H](C)O1 [Daunorubicine]
Here is the method:
as §1

Compound in a further experiment: O=C(/C=C/c1cccc(S(=O)(=O)Nc2ccccc2)c1)NO [Belinostat]
Here is the method: as §1

As to PR#002 (EVI1 status: EVI1High), the “area under dose-response viability curve” value with Vincristine is 179; with AR-42, 132; with Methotrexate it was 232; with Entinostat it was 145; in the experiment with Daunorubicine, 110; with Belinostat, 179.

Turning to PR#003 (EVI1 status: EVI1High), the “area under dose-response viability curve” value was determined as 162 with Vincristine; 112 with AR-42; 239 in the experiment with Methotrexate; 142 in the experiment with Entinostat; 68 in the experiment with Daunorubicine; 156 with Belinostat.

On to PR#004 (EVI1 status: EVI1High), for which the “area under dose-response viability curve” value worked out at 171 in the experiment with Vincristine; 78.8 with AR-42; 237 with Methotrexate; 84.7 with Entinostat; 63.5 with Daunorubicine; 121 with Belinostat.

For PR#005 (EVI1 status: EVI1High), the “area under dose-response viability curve” value with Vincristine was found to be 156; with AR-42 it was 156; with Methotrexate, 198; with Entinostat, 107; in the experiment with Daunorubicine, 87.5; with Belinostat, 138.

As to PR#006 (EVI1 status: EVI1High), the “area under dose-response viability curve” value in the experiment with Vincristine is 136; in the experiment with AR-42, 120; with Methotrexate, 248; with Entinostat, 120; with Daunorubicine it was 57.7; with Belinostat it was 138.

PR#007 (EVI1 status: EVI1High): the “area under dose-response viability curve” value in the experiment with Vincristine is 186; with AR-42, 163; in the experiment with Methotrexate it was 245; with Entinostat it was 172; with Daunorubicine, 110; with Belinostat it was 157.

Consider PR#008 (EVI1 status: EVI1High), for which the “area under dose-response viability curve” value in the experiment with Vincristine amounted to 116; with AR-42 it was 55.7; with Methotrexate, 195; with Entinostat, 82.3; with Daunorubicine it was 15; with Belinostat it was 81.8.

Consider PR#010 (EVI1 status: EVI1Low), for which the “area under dose-response viability curve” value with Vincristine turned out to be 172; in the experiment with AR-42, 121; in the experiment with Methotrexate, 256; in the experiment with Entinostat, 147; with Daunorubicine, 93.9; in the experiment with Belinostat it was 177.

Regarding PR#011 (EVI1 status: EVI1Low), the “area under dose-response viability curve” value amounted to 196 in the experiment with Vincristine; 188 with AR-42; 226 with Methotrexate; 200 with Entinostat; 132 with Daunorubicine; 209 with Belinostat.

Regarding PR#012 (EVI1 status: EVI1Low), the “area under dose-response viability curve” value with Vincristine was found to be 89.8; with AR-42 it was 131; in the experiment with Methotrexate, 218; with Entinostat it was 139; with Daunorubicine, 120; in the experiment with Belinostat, 192.

Regarding PR#013 (EVI1 status: EVI1Low), the “area under dose-response viability curve” value turned out to be 193 with Vincristine; 130 with AR-42; 233 in the experiment with Methotrexate; 153 in the experiment with Entinostat; 68.1 with Daunorubicine; 169 in the experiment with Belinostat.

The record behind these values is the supplement of paper PMC11150407.
